# Test results published in patent US11236046B2, “Substituted heterocyclic sulfonamide compounds useful as TRPA1 modulators” (Genentech, Inc., priority 2013, dated 2022).
# System: not listed separately
# Assay: in vivo rat pharmacokinetic (PK) studies, plasma clearance
# Settings: not given
row,SMILES,Rat PK Clp [mL/min/kg]
1,"O=C(NCc1cc(-c2ccc(C(F)(F)F)nc2)ncn1)[C@@H]1C[C@@H](F)CN1S(=O)(=O)c1ccc(F)cc1 [(2S,4R)-4-fluoro-1-(4-fluorophenyl)sulfonyl-N-[[6-[6-(trifluoromethyl)-3-pyridyl]pyrimidin-4-yl]methyl]pyrrolidine-2-carboxamide]",15

# Same assay, conditions: compared with related compounds
row,SMILES,"stability in in vivo rat PK studies (clearance from the blood), in words"
1,"O=C(NCc1cc(-c2ccc(C(F)(F)F)nc2)ncn1)[C@@H]1C[C@@H](F)CN1S(=O)(=O)c1ccc(F)cc1 [(2S,4R)-4-fluoro-1-(4-fluorophenyl)sulfonyl-N-[[6-[6-(trifluoromethyl)-3-pyridyl]pyrimidin-4-yl]methyl]pyrrolidine-2-carboxamide]",highest stability (slowest clearance)

# Same assay, conditions: plasma, read-out: Rat PK Clp
row,SMILES,clearance [mL/min/kg]
1,"COc1nc(CNC(=O)[C@@H]2C[C@@H](F)CN2S(=O)(=O)c2ccc(F)cc2)cc(-c2ccc(C(F)(F)F)nc2)n1 [(2S,4R)-4-fluoro-1-(4-fluorophenyl)sulfonyl-N-[[2-methoxy-6-[6-(trifluoromethyl)-3-pyridyl]pyrimidin-4-yl]methyl]pyrrolidine-2-carboxamide]",16.5
2,"O=C(NCc1cc(-c2ccc(C(F)(F)F)nc2)ncn1)[C@@H]1[C@@H](F)CCN1S(=O)(=O)c1ccc(F)cc1 [(2R,3S)-3-fluoro-1-(4-fluorophenyl)sulfonyl-N-[[6-[6-(trifluoromethyl)-3-pyridyl]pyrimidin-4-yl]methyl]pyrrolidine-2-carboxamide]",101
3,"N#C[C@@H]1C[C@@H](C(=O)NCc2cc(-c3ccc(C(F)(F)F)cc3)ncn2)N(S(=O)(=O)c2ccc(F)cc2)C1 [(2S,4R)-4-cyano-1-(4-fluorophenyl)sulfonyl-N-[[6-[4-(trifluoromethyl)phenyl]pyrimidin-4-yl]methyl]pyrrolidine-2-carboxamide]",7.6
4,"O=C(NCc1cc(-c2ccc(OC(F)F)cc2)ncn1)[C@@H]1C[C@@H](F)CN1S(=O)(=O)c1ccc(F)cc1 [(2S,4R)-N-[[6-[4-(difluoromethoxy)phenyl]pyrimidin-4-yl]methyl]-4-fluoro-1-(4-fluorophenyl)sulfonyl-pyrrolidine-2-carboxamide]",13.2

# Molecular target: human TRPA1 (Homo sapiens (Human), UniProt O75762)
# Assay: IC50 determination on the human TRPA1 channel, calcium fluorescence (Hamamatsu FDSS plate reader)
# Type: cell-based
# Settings: CHO cells expressing human TRPA1; block of cinnamaldehyde induced calcium influx; 20 minutes compound incubation; Hill coefficient fixed to 1.5; read-out: hTRPA1 AUC IC50
# Description: IC50s (effective concentration) of compounds on the human TRPA1 channel were determined using a Hamamatsu FDSS fluorescence plate reader. CHO cells expressing human TRPA1 were plated into 384-well plates, incubated overnight at 37 C, and loaded with BD calcium indicator dye for 1 hr at 37° C. followed by 15 minutes. at room temperature. The assay buffer was Hank's Balanced Salt Solution (HBSS) containing 20 mM HEPES (pH readjusted to 7.4) along with 0.02% BSA.
# Following dye load and plate cool down, compounds were added to the cells using the FDSS while monitoring fluorescence to determine whether any of the test compounds have TRPA1 agonist activity. Plates were then incubated with compound for 20 minutes at room temperature prior to adding agonist. Following this incubation, […] cinnamaldehyde was added to all wells of the plate and block of this cinnamaldehyde induced calcium influx was measured.
# Fixing the Hill coefficient will generally reduce variability of the IC50 determination. The IC50s were examined by eye to make sure the MIN and MAX points were set correctly prior to validation of the results.
# Chain of human TRPA1 (O75762 whole entry): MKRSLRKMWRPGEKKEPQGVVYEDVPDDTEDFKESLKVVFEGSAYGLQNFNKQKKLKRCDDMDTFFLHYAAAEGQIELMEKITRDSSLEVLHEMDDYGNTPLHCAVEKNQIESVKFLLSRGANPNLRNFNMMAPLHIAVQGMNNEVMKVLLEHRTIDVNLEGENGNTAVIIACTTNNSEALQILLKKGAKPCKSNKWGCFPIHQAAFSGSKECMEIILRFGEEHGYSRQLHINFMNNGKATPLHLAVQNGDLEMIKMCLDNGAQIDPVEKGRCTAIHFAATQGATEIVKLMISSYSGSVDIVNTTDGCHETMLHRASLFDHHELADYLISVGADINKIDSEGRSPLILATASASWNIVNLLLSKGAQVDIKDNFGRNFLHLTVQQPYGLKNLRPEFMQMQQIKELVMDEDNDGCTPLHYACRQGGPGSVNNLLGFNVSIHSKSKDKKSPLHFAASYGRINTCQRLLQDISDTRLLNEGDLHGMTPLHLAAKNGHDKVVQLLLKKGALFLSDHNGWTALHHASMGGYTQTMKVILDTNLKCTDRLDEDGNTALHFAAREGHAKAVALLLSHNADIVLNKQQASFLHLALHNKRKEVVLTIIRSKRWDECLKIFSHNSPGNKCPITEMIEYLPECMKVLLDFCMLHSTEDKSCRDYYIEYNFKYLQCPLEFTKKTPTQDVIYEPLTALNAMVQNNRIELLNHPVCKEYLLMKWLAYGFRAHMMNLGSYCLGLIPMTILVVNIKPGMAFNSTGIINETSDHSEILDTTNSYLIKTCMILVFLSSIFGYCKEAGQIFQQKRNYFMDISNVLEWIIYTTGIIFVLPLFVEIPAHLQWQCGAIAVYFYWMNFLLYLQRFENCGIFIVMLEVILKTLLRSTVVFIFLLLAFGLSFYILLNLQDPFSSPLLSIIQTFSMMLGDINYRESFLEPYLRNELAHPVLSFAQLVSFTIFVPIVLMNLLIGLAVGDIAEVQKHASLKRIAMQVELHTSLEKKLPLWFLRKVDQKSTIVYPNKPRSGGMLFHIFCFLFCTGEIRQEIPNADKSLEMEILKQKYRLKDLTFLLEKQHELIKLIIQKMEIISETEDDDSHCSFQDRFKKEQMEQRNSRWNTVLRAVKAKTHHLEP
row,SMILES,IC50 [nM]
1,"O=C(NCc1cc(-c2ccc(C(F)(F)F)nc2)ncn1)[C@@H]1[C@H]2CC[C@H](C2)N1S(=O)(=O)c1ccc(F)cc1 [Example 34, (1R,3S,4S)-2-(4-fluorophenylsulfonyl)-N-((6-(6-(trifluoromethyl)pyridin-3-yl)pyrimidin-4-yl)methyl)-2-azabicyclo[2.2.1]heptane-3-carboxamide]",40
2,"O=C(NCc1cc(-c2ccc(C(F)(F)F)nc2)ncn1)[C@@H]1C[C@H](F)CN1S(=O)(=O)c1ccc(F)cc1 [Example 4, (2S,4S)-4-fluoro-1-(4-fluorophenylsulfonyl)-N-((6-(6-(trifluoromethyl)pyridin-3-yl)pyrimidin-4-yl)methyl)pyrrolidine-2-carboxamide]",819
3,"O=C(NCc1cc(-c2ccc(C(F)(F)F)nc2)c(F)cn1)[C@@H]1C[C@@H](F)CN1S(=O)(=O)c1ccc(F)cc1 [Example 9, (2S,4R)-4-fluoro-N-((5′-fluoro-6-(trifluoromethyl)-3,4′-bipyridin-2′-yl)methyl)-1-(4-fluorophenylsulfonyl)pyrrolidine-2-carboxamide]",20
4,"O=C(NCc1cc(-c2ccc(C(F)(F)F)cc2)ncn1)[C@@H]1C[C@@H](F)CN1S(=O)(=O)c1cccc(F)c1 [Example 6, (2S,4R)-4-fluoro-1-(3-fluorophenylsulfonyl)-N-((6-(4-(trifluoromethyl)phenyl)pyrimidin-4-yl)methyl)pyrrolidine-2-carboxamide]",23
5,"O=C(NCc1cc(N2CCC(C(F)(F)F)CC2)ncn1)[C@@H]1C[C@@H](F)CN1S(=O)(=O)c1ccc(F)cc1 [Example 11, (2S,4R)-4-fluoro-1-(4-fluorophenylsulfonyl)-N-((6-(4-(trifluoromethyl)piperidin-1-yl)pyrimidin-4-yl)methyl)pyrrolidine-2-carboxamide]",434
6,"O=C(NCc1cc(-c2ccc(C(F)(F)F)cc2)ncn1)[C@@H]1[C@H]2CC[C@H](C2)N1S(=O)(=O)c1ccc(F)cc1 [Example 33, (1R,3S,4S)-2-(4-fluorophenylsulfonyl)-N-((6-(4-(trifluoromethyl)phenyl)pyrimidin-4-yl)methyl)-2-azabicyclo[2.2.1]heptane-3-carboxamide]",23
7,"O=C(NCc1cc(-c2ccc(C(F)(F)F)nc2)ncc1F)[C@@H]1C[C@@H](F)CN1S(=O)(=O)c1ccc(F)cc1 [Example 8, (2S,4R)-4-fluoro-N-((5-fluoro-6′-(trifluoromethyl)-2,3′-bipyridin-4-yl)methyl)-1-(4-fluorophenylsulfonyl)pyrrolidine-2-carboxamide]",17
8,"O=C(NCc1cn(-c2ccc(C(F)(F)F)cc2)nc1Cl)[C@@H]1C[C@@H](F)CN1S(=O)(=O)c1ccc(F)cc1 [Example 16, (2S,4R)—N-([3-chloro-1-[4-(trifluoromethyl)phenyl]-1H-pyrazol-4-yl]methyl)-4-fluoro-1-[(4-fluorobenzene)sulfonyl]pyrrolidine-2-carboxamide]",8
9,"O=C(NCc1cc(-c2ccc(SC(F)(F)F)cc2)ncn1)[C@@H]1C[C@@H](F)CN1S(=O)(=O)c1ccc(F)cc1 [Example 29, (2S,4R)-4-fluoro-1-(4-fluorophenylsulfonyl)-N-((6-(4-(trifluoromethylthio)phenyl)pyrimidin-4-yl)methyl)pyrrolidine-2-carboxamide]",32
10,"O=C(NCc1cc(-c2ccc(C3CC3)nc2)ncn1)[C@@H]1C[C@@H](F)CN1S(=O)(=O)c1ccc(F)cc1 [Example 23, (2S,4R)—N-((6-(6-cyclopropylpyridin-3-yl)pyrimidin-4-yl)methyl)-4-fluoro-1-(4-fluorophenylsulfonyl)pyrrolidine-2-carboxamide]",2700
11,"O=C(NCc1cc(-c2ccc(C(F)(F)F)nc2)ncn1)[C@@H]1C[C@@H](F)CN1S(=O)(=O)c1ccc(Cl)s1 [Example 24, (2S,4R)-1-(5-chlorothiophen-2-ylsulfonyl)-4-fluoro-N-((6-(6-(trifluoromethyl)pyridin-3-yl)pyrimidin-4-yl)methyl)pyrrolidine-2-carboxamide]",27
12,"O=C(NCc1cc(-c2ccc(C(F)(F)F)nc2)ncn1)[C@@H]1C[C@@H](F)CN1S(=O)(=O)c1ccc(F)c(F)c1 [Example 25, (2S,4R)-1-(3,4-difluorophenylsulfonyl)-4-fluoro-N-((6-(6-(trifluoromethyl)pyridin-3-yl)pyrimidin-4-yl)methyl)pyrrolidine-2-carboxamide]",126
13,"O=C(NCc1cc(-c2ccc(C(F)(F)F)cc2)ncn1)[C@@H]1C[C@@H](F)CN1S(=O)(=O)c1ccc(F)c(F)c1 [Example 26, (2S,4R)-1-(3,4-difluorophenylsulfonyl)-4-fluoro-N-((6-(4-(trifluoromethyl)phenyl)pyrimidin-4-yl)methyl)pyrrolidine-2-carboxamide]",30
14,"O=C(NCc1cc(-c2ccc(OC(F)(F)F)cc2)ncn1)[C@@H]1C[C@@H](F)CN1S(=O)(=O)c1ccc(F)cc1 [Example 21, (2S,4R)-4-fluoro-1-(4-fluorophenylsulfonyl)-N-((6-(4-(trifluoromethoxy)phenyl)pyrimidin-4-yl)methyl)pyrrolidine-2-carboxamide]",21
15,"O=C(NCc1cn(-c2ccc(C(F)(F)F)nc2)nc1Cl)[C@@H]1C[C@@H](F)CN1S(=O)(=O)c1ccc(F)cc1 [Example 15, (2S,4R)—N-([3-chloro-1-[6-(trifluoromethyl)pyridin-3-yl]-1H-pyrazol-4-yl]methyl)-4-fluoro-1-[(4-fluorobenzene)sulfonyl]pyrrolidine-2-carboxamide]",30
